Data reported in ChEMBL document CHEMBL5131475, “Metallo-β-lactamases inhibitor fisetin attenuates meropenem resistance in NDM-1-producing Escherichia coli” (Eur J Med Chem, 2022).
Converted amounts (≈) assume the structure as drawn. The source made the active and inactive calls. The rule behind the calls is not given here.

Columns and labels:
[1] = system: Escherichia coli; assay: Synergistic antibacterial activity against NDM-1 positive Escherichia coli ZC-YN3 isolates assessed as fractional Inhibitory concentration index incubated for 18 to 24 hrs in presence of florfenicol by CLSI based broth microdilution method; type: functional; conditions: time 18-24 hrs
[2] = system: Escherichia coli; assay: Antibacterial activity against NDM-1 positive Escherichia coli ZC-YN3 isolates assessed as lincomycin MIC incubated for 18 to 24 hrs by CLSI based broth microdilution method; type: functional; conditions: time 18-24 hrs
[3] = system: Escherichia coli; assay: Synergistic antibacterial activity against NDM-1 positive Escherichia coli ZC-YN3 isolates assessed as fractional Inhibitory concentration index incubated for 18 to 24 hrs in presence of rifampicin by CLSI based broth microdilution method; type: functional; conditions: time 18-24 hrs
[4] = system: Bacteria
Description: Binding affinity to NDM-1 H250A mutant (unknown origin) assessed as binding constant by fluorescence quenching method

[5] = system: Escherichia coli; assay: Antibacterial activity against NDM-1 positive Escherichia coli ZC-YN3 isolates assessed as vancomycin MIC incubated for 18 to 24 hrs by CLSI based broth microdilution method; type: functional; conditions: time 18-24 hrs
[6] = system: Bacteria; assay: Binding affinity to NDM-1 H250A mutant (unknown origin) assessed as binding free energy by fluorescence quenching method
[7] = system: Mus musculus; assay: Antibacterial activity in BALB/c mouse infected with NDM-1 positive Escherichia coli ZJ487 assessed as mouse death rate at 50 mg/kg, sc administered every 12 hrs and measured after 96 hrs post infection; type: functional
[8] = system: Escherichia coli; assay: Antibacterial activity against pET28a-NDM-1 positive Escherichia coli BL21(DE3) isolates assessed as tetracycline MIC incubated for 18 to 24 hrs by CLSI based broth microdilution method; type: functional; conditions: time 18-24 hrs
[9] = system: Bacteria; assay: Binding affinity to NDM-1 V73A mutant (unknown origin) assessed as binding free energy by fluorescence quenching method
[10] = system: Bacteria; assay: Inhibition of NDM-1 M248A mutant activity (unknown origin) in presence of zinc ion
[11] = system: Escherichia coli; assay: Synergistic antibacterial activity against NDM-1 positive Escherichia coli ZC-YN3 isolates assessed as fractional Inhibitory concentration index incubated for 18 to 24 hrs in presence of imipenem by CLSI based broth microdilution method; type: functional; conditions: time 18-24 hrs
[12] = system: Escherichia coli; assay: Antibacterial activity against pET28a-NDM-1 positive Escherichia coli BL21(DE3) isolates assessed as meropenem MIC incubated for 18 to 24 hrs by CLSI based broth microdilution method; type: functional; conditions: time 18-24 hrs
[13] = Inhibition of class A […]beta-lactamase KPC-2 (unknown origin) using nitrocefin as substrate preincubated for 15 min followed by substrate addition and measured after 15 min by microplate reader assay; set-up: species or system Bacteria
[14] = Inhibition of metallo-beta-lactamase NDM-1 (unknown origin) using nitrocefin as substrate preincubated for 15 min followed by substrate addition and measured after 15 min by microplate reader assay; set-up: species or system Bacteria
[15] = system: Escherichia coli; assay: Antibacterial activity against NDM-1 negative Escherichia coli ATCC25922 isolates assessed as meropenem MIC incubated for 18 to 24 hrs by CLSI based broth microdilution method; type: functional; conditions: time 18-24 hrs
[16] = system: Escherichia coli; assay: Synergistic antibacterial activity against pET28a NDM-1 positive Escherichia coli BL21(DE3) isolates assessed as fractional Inhibitory concentration index incubated for 18 to 24 hrs in presence of imipenem by CLSI based broth microdilution method; type: functional; conditions: time 18-24 hrs
[17] = system: Escherichia coli; assay: Antibacterial activity against pET28a-NDM-1 positive Escherichia coli BL21(DE3) isolates assessed as ampicillin MIC incubated for 18 to 24 hrs by CLSI based broth microdilution method; type: functional; conditions: time 18-24 hrs
[18] = system: Escherichia coli; assay: Antibacterial activity against NDM-1 negative Escherichia coli BL21(DE3) (pET28a) isolates assessed as meropenem MIC incubated for 18 to 24 hrs by CLSI based broth microdilution method; type: functional; conditions: time 18-24 hrs
[19] = system: Escherichia coli; assay: Synergistic antibacterial activity against NDM-1 positive Escherichia coli ZC-YN3 isolates assessed as fractional Inhibitory concentration index incubated for 18 to 24 hrs in presence of cefotaxime by CLSI based broth microdilution method; type: functional; conditions: time 18-24 hrs
[20] = system: Escherichia coli; assay: Antibacterial activity against pET28a-NDM-1 positive Escherichia coli BL21(DE3) isolates assessed as streptomycin MIC incubated for 18 to 24 hrs by CLSI based broth microdilution method; type: functional; conditions: time 18-24 hrs
[21] = system: Escherichia coli; assay: Synergistic antibacterial activity against pET28a NDM-1 positive Escherichia coli BL21(DE3) isolates assessed as fractional Inhibitory concentration index incubated for 18 to 24 hrs in presence of kanamycin by CLSI based broth microdilution method; type: functional; conditions: time 18-24 hrs
[22] = system: Escherichia coli; assay: Antibacterial activity against pET28a-NDM-1 positive Escherichia coli BL21(DE3) isolates assessed as imipenem MIC incubated for 18 to 24 hrs by CLSI based broth microdilution method; type: functional; conditions: time 18-24 hrs
[23] = system: Escherichia coli; assay: Synergistic antibacterial activity against NDM-1 positive Escherichia coli ZC-YN3 isolates assessed as fractional Inhibitory concentration index incubated for 18 to 24 hrs in presence of kanamycin by CLSI based broth microdilution method; type: functional; conditions: time 18-24 hrs
[24] = system: Escherichia coli; assay: Antibacterial activity against pET28a-NDM-1 positive Escherichia coli BL21(DE3) isolates assessed as florfenicol MIC incubated for 18 to 24 hrs by CLSI based broth microdilution method; type: functional; conditions: time 18-24 hrs
[25] = system: Escherichia coli; assay: Synergistic antibacterial activity against pET28a NDM-1 positive Escherichia coli BL21(DE3) isolates assessed as fractional Inhibitory concentration index incubated for 18 to 24 hrs in presence of vancomycin by CLSI based broth microdilution method; type: functional; conditions: time 18-24 hrs
[26] = system: Escherichia coli; assay: Antibacterial activity against NDM-1 positive Escherichia coli ZC-YN3 isolates assessed as imipenem MIC incubated for 18 to 24 hrs by CLSI based broth microdilution method; type: functional; conditions: time 18-24 hrs
[27] = system: Mus musculus; assay: Antibacterial activity in BALB/c mouse infected with NDM-1 positive Escherichia coli ZJ487 assessed as increase in survival rate at 10 mg/kg, sc administered every 12 hrs and measured after 96 hrs post infection; type: functional
[28] = system: Escherichia coli; assay: Antibacterial activity against NDM-1 positive Escherichia coli ZC-YN3 isolates assessed as meropenem MIC incubated for 18 to 24 hrs by CLSI based broth microdilution method; type: functional; conditions: time 18-24 hrs
[29] = system: Escherichia coli; assay: Synergistic antibacterial activity against NDM-1 negative Escherichia coli ATCC25922 isolates assessed as fractional Inhibitory concentration index incubated for 18 to 24 hrs in presence of meropenem by CLSI based broth microdilution method; type: functional; conditions: time 18-24 hrs
[30] = system: Escherichia coli; assay: Synergistic antibacterial activity against pET28a NDM-1 positive Escherichia coli BL21(DE3) isolates assessed as fractional Inhibitory concentration index incubated for 18 to 24 hrs in presence of florfenicol by CLSI based broth microdilution method; type: functional; conditions: time 18-24 hrs
[31] = system: Escherichia coli; assay: Antibacterial activity against NDM-1 positive MCR1 carrying Escherichia coli ZJ487 isolates assessed as meropenem MIC incubated for 18 to 24 hrs by CLSI based broth microdilution method; type: functional; conditions: time 18-24 hrs
[32] = Inhibition of metallo-beta-lactamase VIM-1 (unknown origin) using nitrocefin as substrate preincubated for 15 min followed by substrate addition and measured after 15 min by microplate reader assay; set-up: species or system Bacteria
[33] = system: Escherichia coli; assay: Bactericidal activity against pET28a-NDM-1 producing Escherichia coli BL21(DE3) at 32 ug/ml measured within 3 hrs in presence of meropenem by time kill curve assay; type: functional, organism-based; conditions: dose 32.0 µg/ml
[34] = system: Escherichia coli; assay: Antibacterial activity against pET28a-NDM-1 positive Escherichia coli BL21(DE3) isolates assessed as rifampicin MIC incubated for 18 to 24 hrs by CLSI based broth microdilution method; type: functional; conditions: time 18-24 hrs
[35] = system: Escherichia coli; assay: Synergistic antibacterial activity against pET28a NDM-1 positive Escherichia coli BL21(DE3) isolates assessed as fractional Inhibitory concentration index incubated for 18 to 24 hrs in presence of rifampicin by CLSI based broth microdilution method; type: functional; conditions: time 18-24 hrs

Question: For `O=c1c(O)c(-c2ccc(O)c(O)c2)oc2cc(O)ccc12` [FISETIN], which “fractional inhibitory concentration index (FICI)” value [1] is on record?
Answer: 0.96

Question: And the MIC [2]?
Answer: 1020 µg/mL

Question: And the “fractional inhibitory concentration index (FICI)” value [3]?
Answer: 0.96

Question: What about the Ka [4] of the same compound?
Answer: 6.95 10^5L/mol

Question: What about the MIC [5] of the same compound?
Answer: 427 µg/mL

Question: And the Activity [6]?
Answer: -12.4 kcal/mol

Question: What about the Activity [7] of the same compound?
Answer: 90%

Question: What about the MIC [8] of the same compound?
Answer: 427 µg/mL

Question: And the Activity [9]?
Answer: -18.7 kcal/mol

Question: And the inhibition [10]?
Answer: Active

Question: What about the “fractional inhibitory concentration index (FICI)” value [11] of the same compound?
Answer: 0.38

Question: And the MIC [12]?
Answer: 4.67 µg/mL

Question: And the IC50 [13]?
Answer: 2.63 µg/mL (≈ 9.19 µM)

Question: What about the IC50 [14] of the same compound?
Answer: 9.66 µg/mL (≈ 33.7 µM)

Question: What about the MIC [15] of the same compound?
Answer: 0.01 µg/mL

Question: And the “fractional inhibitory concentration index (FICI)” value [16]?
Answer: 0.46

Question: And the MIC [17]?
Answer: 683 µg/mL

Question: And the MIC [18]?
Answer: 0.01 µg/mL

Question: What about the “fractional inhibitory concentration index (FICI)” value [19] of the same compound?
Answer: 1.13

Question: And the MIC [20]?
Answer: 42.7 µg/mL

Question: And the “fractional inhibitory concentration index (FICI)” value [21]?
Answer: 1.13

Question: And the MIC [22]?
Answer: 9.33 µg/mL

Question: And the “fractional inhibitory concentration index (FICI)” value [23]?
Answer: 1.13

Question: What about the MIC [24] of the same compound?
Answer: 683 µg/mL

Question: And the “fractional inhibitory concentration index (FICI)” value [25]?
Answer: 1.13

Question: And the MIC [26]?
Answer: 6.67 µg/mL

Question: And the Activity [27]?
Answer: 20%

Question: What about the MIC [28] of the same compound?
Answer: 4 µg/mL

Question: And the “fractional inhibitory concentration index (FICI)” value [29]?
Answer: 1.13

Question: What about the “fractional inhibitory concentration index (FICI)” value [30] of the same compound?
Answer: 0.79

Question: What about the MIC [31] of the same compound?
Answer: 5.33 µg/mL

Question: And the IC50 [32]?
Answer: 11.37 µg/mL (≈ 39.7 µM)

Question: What about the Activity [33] of the same compound?
Answer: Active

Question: And the MIC [34]?
Answer: 853 µg/mL

Question: What about the “fractional inhibitory concentration index (FICI)” value [35] of the same compound?
Answer: 0.96
